Laboratory results: patent US9969761B2, “Stabilisation of radiopharmaceutical precursors” (GE HEALTHCARE LIMITED, priority 2004, dated 2018)
“And” between values parts separate entries of the source, which are not always exact repeats. Equal entries are not always repeated.

Assays:
[1] = Comparative example: radiolabelling of stored dry powder mannose triflate, RCP by ITLC; format: physicochemical; settings: for % RCP: dry powder
Procedure: Dry powder mannose triflate was stored in vials at different temperatures and for different time periods.
A solution of potassium carbonate (41 mg of potassium carbonate in 40 μl water) was added to a glassy carbon reactor and then a solution of kryptofix 222 (19.4 mg in 320 μl) was added separately. Then a solution of 18-fluoride in water (0.05 ml) was added and the solution dried by heating to 80° C. for 4 mins with a flow of dry nitrogen (at 0.3 liters/min). A solution of 1,3,4,6-tetra-O-acetyl-2-O-trifluoromethanesulfonyl-β-D-mannopyranose (20 mg in 1.6 ml dry acetonitrile) was then added and the reaction heated for a further 4 minutes at 80° C. The reaction was then cooled to 50° C. and a sample removed for analysis by ITLC (Instant thin layer chromatography) on TLC aluminium sheets silica gel 60 F254 eluting with 95% acetonitrile, 5% water. The radiochemical purity was calculated from the ratio of 1,3,4,6-tetra-O-acetyl-2-fluoro-β-D-mannopyranose to the total of the sugar and free fluoride (the sole two components from the reaction).

IR of stored dry powder = format: physicochemical; settings: 2 weeks storage at 50° C.
[2] = Radiolabelling with 18F- in a glassy carbon reactor after storage (pFDG RCP), Examples 1 and 2; format: physicochemical; settings: storage time 0 weeks, MT 20 mg in 1.6 ml acetonitrile
Procedure: (§1) Filled and capped units are kept in storage at 25° C. and 50° C. in thermally controlled cabinets for set periods of time at which “pull points” a vial was removed from storage and subjected to the testing outlined below.
Radioactive methods (hot) performed: Radiolabelling with ^18F^− in a glassy carbon reactor (all pull points). Each dry sample of mannose triflate (20 mg) is dissolved in dry acetonitrile (1.6 ml). For the mannose triflate stored in acetonitrile, an aliquot (3.3 ml) was removed and diluted to 4.0 ml with acetonitrile and 1.6 ml of this solution was used in the radiolabelling test. For the samples taken after 2 weeks storage at 50° C., a 1.6 ml sample of the mannose triflate solution was used directly without further dilution. In all cases, the radiolabelling was performed after drying an ^18F solution of Kryptofix 2.2.2 (19.4 mg), potassium carbonate (41.0 mg), acetonitrile (0.32 ml) and water (0.04 ml) for 4 minutes at 80° C. before adding the test solution of mannose triflate in acetonitrile. The labelling reaction was carried out at 80° C. for 4 minutes in a glassy carbon reactor. […]
Using similar method to Example 1, the stability of mannose triflate in acetonitrile with water at level of approximately 725, 1450, and 2500 ppm was evaluated. […]

[3] = Purity by HPLC-UV after storage; format: physicochemical; settings: dry powder; 2 weeks storage at 50° C.
Procedure: as §1
(§2) Non-radioactive methods (cold) performed: • Appearance/organoleptic test, all pull points • Purity by HPLC-UV, all pull points • ^19F-NMR, all pull points • Water content analysis, at time zero.
HPLC Method: octadecylsilyl silica gel (5 μm) column (Hichrom Nucleosil 100-5C18), temperature 25° C.; injection volume 20 μl; mobile phase of water: acetonitrile gradient, 1 ml/min. Detection by spectrophotometer at 220 nm.
HPLC-UV traces for the solid mannose triflate control experiment and the acetonitrile solution of mannose triflate are shown in FIGS. 1 and 2 respectively. Mannose triflate elutes at 32.5 minutes.

[4] = Appearance/organoleptic test after storage; format: physicochemical; settings: dry powder; 2 weeks storage at 50° C.
Procedure: as §1, §2

[5] = dry powder at 5° C.; cited from earlier work

SMILES: CC(=O)OC[C@H]1O[C@@H](OC(C)=O)[C@@H](OS(=O)(=O)C(F)(F)F)[C@@H](OC(C)=O)[C@@H]1OC(C)=O [mannose triflate, 1,3,4,6-tetra-O-acetyl-2-O-trifluoromethanesulfonyl-β-D-mannopyranose]
- % RCP ([1]; 0 days under air, listed as Dry powder mannose triflate): 87% and 86%
- % RCP ([1]; 1 day @ room temperature under dry N2, listed as Dry powder mannose triflate): 82% and 93%
- % RCP ([1]; 5 days @ 50° C. under air): 5%
- % RCP ([1]; 127 days @ 25° C. under air): 1%
- stability of dry powder (conclusion from RCP data) ([1]; room temperature, much worse at 50° C.): significant instability
- IR identity (IR of stored dry powder): no longer mannose triflate
- pFDG RCP % ([2]; listed as Control (N2)): 82% and 93%
- pFDG RCP % ([2]; listed as Control (air)): 87% and 86%
- HPLC-UV detection of mannose triflate [3]: no mannose triflate was detected
- Appearance/organoleptic [4]: black and smelled strongly of acetic acid
- shelf life [5]: 6 months
